Reference: patent US11629171B2, “Beta-hairpin peptidomimetics” (POLYPHOR AG, priority 2017, dated 2023)
Values after ≈ are worked out from the molar mass of the structure shown. Where a SMILES comes first, the peptide text is derived from it. Bridges are numbered along the chain shown (N, C = ends). Roman numbers before positions name the chains, in order. [ ]: non-standard residue; d: D form. Thr(ol) = C[C@@H](O)[C@H](N)CO; Tle = CC(C)(C)[C@H](N)C(=O)O; Hiv = CC(C)[C@H](O)C(=O)O; dDab = NCC[C@@H](N)C(=O)O; hSer = N[C@@H](CCO)C(=O)O; Orn = NCCC[C@H](N)C(=O)O; Dab = NCC[C@H](N)C(=O)O; Dap = NC[C@H](N)C(=O)O

How the values were obtained:
Assay type in all cases: cell-based
[1] = system: Acinetobacter baumannii 872842; conditions: 872842
Method in brief: (§1)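 Two-fold peptide dilutions in polysorbate 80-containing (0.002% final) cation-adjusted Mueller-Hinton II broth were inoculated with about 10^6 CFU/mL. The MIC was taken as the lowest concentration, in μg/mL, preventing visible growth at 18-20 hours and 35° C.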

[2] = system: Acinetobacter baumannii DSM 30008; conditions: DSM 30008
Method in brief: as §1

[3] = system: Enterobacter cloacae 848840; conditions: 848840
Method in brief: as §1

[4] = system: Escherichia coli 926415; conditions: 926415
Method in brief: as §1

[5] = system: Escherichia coli ATCC 25922; conditions: ATCC 25922
Method in brief: as §1

[6] = system: Klebsiella pneumoniae 968733; conditions: 968733
Method in brief: as §1

[7] = system: Klebsiella pneumoniae SSI #3010; conditions: SSI #3010
Method in brief: as §1

[8] = system: Pseudomonas aeruginosa ATCC 27853; conditions: ATCC 27853
Method in brief: as §1

[9] = system: human red blood cells (hRBC); assay: Hemolysis; conditions: red cells of human, 1 h, 200
Method in brief: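 First, fresh human erythrocytes are washed in PBS; next, they are incubated at 20% (v/v) with compound at 200 μg/mL for 1 h at 37° C. Finally, centrifuged supernatants are diluted and OD540 is taken relative to the Triton X-100 lysis control.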

Structure (SMILES): CC(C)C[C@@H]1NC(=O)[C@@H](CC(C)C)NC(=O)[C@H](CCN)NC(=O)[C@@H](NC(=O)[C@H](CN)NC(=O)[C@@H](NC(=O)[C@H](CCN)NC(=O)CC[C@@H]2NC(=O)[C@H](CN)NC(=O)[C@H](Cc3ccc(O)cc3)NC(=O)[C@@H](NC(=O)[C@@H](O)C(C)C)CSSC[C@@H](C(=O)N[C@H](CO)[C@@H](C)O)NC(=O)[C@H](C(C)(C)C)NC(=O)[C@H](CO)NC(=O)[C@H](Cc3c[nH]c4ccccc34)NC(=O)[C@H](CCN)NC(=O)[C@@H](CCN)NC2=O)[C@@H](C)O)CCNC(=O)[C@H]([C@@H](C)O)NC(=O)[C@H](CCN)NC(=O)[C@H](CCN)NC1=O [Ex. 111] (I: H-[Hiv]CY[Dap]E[dDab][Dab]WS[Tle]C[Thr(ol)] / II: [Dab]T[Dap][Dab][Dab][dL]L[Dab][Dab]T; disulfide I:2-I:11; amide I:5-II:N; lactam II:4-II:C)
- MIC [1]: 0.0625 µg/mL (≈ 0.0264 µM)
- MIC [2]: 0.03125 µg/mL (≈ 0.0132 µM)
- MIC [3]: 0.125 µg/mL (≈ 0.0527 µM)
- MIC [4]: 0.0625 µg/mL (≈ 0.0264 µM)
- MIC [5]: 0.125 µg/mL (≈ 0.0527 µM)
- MIC [6]: 0.125 µg/mL (≈ 0.0527 µM)
- MIC [7]: 0.125 µg/mL (≈ 0.0527 µM)
- MIC [8]: 0.25 µg/mL (≈ 0.105 µM)
- Hemolysis at 200 μg/mL [9]: <1%

Structure (SMILES): CC(=O)N[C@H](C(=O)N[C@H]1CCCNC(=O)[C@@H]([C@H](C)O)NC(=O)[C@H](C(C)(C)C)NC(=O)[C@H](CO)NC(=O)[C@H](Cc2c[nH]c3ccccc23)NC(=O)[C@H](CCO)NC(=O)[C@@H](CCN)NC(=O)[C@H](CCC(=O)N[C@@H](CCN)C(=O)N[C@H](C(=O)N[C@@H](CN)C(=O)N[C@H]2CCNC(=O)[C@H]([C@@H](C)O)NC(=O)[C@H](CCN)NC(=O)[C@H](CCN)NC(=O)[C@H](CC(C)C)NC(=O)[C@@H](CC(C)C)NC(=O)[C@H](CCN)NC2=O)[C@@H](C)O)NC(=O)[C@H]([C@@H](C)O)NC(=O)[C@H](Cc2ccc(O)cc2)NC1=O)C(C)C [Ex. 17] (I: Ac-V[Orn]YTE[dDab][hSer]WS[Tle][dT] / II: [Dab]T[Dap][Dab][Dab][dL]L[Dab][Dab]T; lactam I:2-I:C, II:4-II:C; amide I:5-II:N)
- MIC [1]: 0.125 µg/mL (≈ 0.0535 µM)
- MIC [2]: 0.0625 µg/mL (≈ 0.0268 µM)
- MIC [3]: 0.25 µg/mL (≈ 0.107 µM)
- MIC [4]: 0.5 µg/mL (≈ 0.214 µM)
- MIC [5]: 0.0625 µg/mL (≈ 0.0268 µM)
- MIC [6]: 0.5 µg/mL (≈ 0.214 µM)
- MIC [7]: 0.125 µg/mL (≈ 0.0535 µM)
- MIC [8]: 0.25 µg/mL (≈ 0.107 µM)
- Hemolysis at 200 μg/mL [9]: <1%

Structure (SMILES): CC(=O)N[C@H](C(=O)N[C@H]1CSSC[C@@H](C(=O)N[C@@H](CO)C(N)=O)NC(=O)[C@H](C(C)C)NC(=O)[C@H](CO)NC(=O)[C@H](Cc2c[nH]c3ccccc23)NC(=O)[C@H](CCC(=O)N[C@@H](CCN)C(=O)N[C@H](C(=O)N[C@@H](CN)C(=O)N[C@H]2CCNC(=O)[C@H]([C@@H](C)O)NC(=O)[C@H](CCN)NC(=O)[C@H](CCN)NC(=O)[C@H](CC(C)C)NC(=O)[C@@H](CC(C)C)NC(=O)[C@H](CCN)NC2=O)[C@@H](C)O)NC(=O)[C@@H](CCN)NC(=O)[C@H](CCN)NC(=O)[C@H](CO)NC(=O)[C@H](Cc2ccc(O)cc2)NC1=O)C(C)C [Ex. 356] (I: Ac-VCYS[Dab][dDab]EWSVCS-NH2 / II: [Dab]T[Dap][Dab][Dab][dL]L[Dab][Dab]T; disulfide I:2-I:11; amide I:7-II:N; lactam II:4-II:C)
- MIC [1]: 0.125 µg/mL (≈ 0.0521 µM)
- Acinetobacter baumannii DSM 30008 MIC [2]: 0.0625 µg/mL
- MIC [3]: 0.125 µg/mL (≈ 0.0521 µM)
- MIC [4]: 0.25 µg/mL (≈ 0.104 µM)
- Escherichia coli ATCC 25922 MIC [5]: 0.0625 µg/mL
- MIC [6]: 0.25 µg/mL (≈ 0.104 µM)
- Klebsiella pneumoniae SSI #3010 MIC [7]: 0.0625 µg/mL
- Pseudomonas aeruginosa ATCC 27853 MIC [8]: 0.125 µg/mL
- Hemolysis at 200 μg/mL [9]: 2%

Structure (SMILES): CC(=O)N[C@@H](CC(C)C)C(=O)N[C@H]1CSSC[C@@H](C(=O)N[C@@H](CO)C(N)=O)NC(=O)[C@H](C(C)C)NC(=O)[C@H](CCN)NC(=O)[C@H](Cc2c[nH]c3ccccc23)NC(=O)[C@H](CCN)NC(=O)[C@@H](CCN)NC(=O)[C@H](CCC(=O)N[C@@H](CCN)C(=O)N[C@H](C(=O)N[C@@H](CN)C(=O)N[C@H]2CCNC(=O)[C@H]([C@@H](C)O)NC(=O)[C@H](CCN)NC(=O)[C@H](CCN)NC(=O)[C@H](CC(C)C)NC(=O)[C@@H](CC(C)C)NC(=O)[C@H](CCN)NC2=O)[C@@H](C)O)NC(=O)[C@H](CCN)NC(=O)[C@H](Cc2ccc(O)cc2)NC1=O [Ex. 353] (I: Ac-LCY[Dab]E[dDab][Dab]W[Dab]VCS-NH2 / II: [Dab]T[Dap][Dab][Dab][dL]L[Dab][Dab]T; disulfide I:2-I:11; amide I:5-II:N; lactam II:4-II:C)
- MIC [1]: 4 µg/mL (≈ 1.64 µM)
- Acinetobacter baumannii DSM 30008 MIC [2]: 1 µg/mL
- MIC [3]: 8 µg/mL (≈ 3.28 µM)
- MIC [4]: 0.25 µg/mL (≈ 0.103 µM)
- Escherichia coli ATCC 25922 MIC [5]: 0.125 µg/mL
- MIC [6]: 4 µg/mL (≈ 1.64 µM)
- Klebsiella pneumoniae SSI #3010 MIC [7]: 0.125 µg/mL
- Pseudomonas aeruginosa ATCC 27853 MIC [8]: 0.25 µg/mL
- Hemolysis at 200 μg/mL [9]: <1%

Structure (SMILES): CC(=O)N[C@H](C(=O)N[C@H]1CSSC[C@@H](C(=O)N[C@@H](CO)C(N)=O)NC(=O)[C@H](C(C)C)NC(=O)[C@H](CO)NC(=O)[C@H](Cc2c[nH]c3ccccc23)NC(=O)[C@H](CCN)NC(=O)[C@@H](CCN)NC(=O)[C@H](CCC(=O)N[C@@H](CCN)C(=O)N[C@H](C(=O)N[C@@H](CCN)C(=O)N[C@H]2CCNC(=O)[C@H]([C@@H](C)O)NC(=O)[C@H](CCN)NC(=O)[C@H](CCN)NC(=O)[C@H](CC(C)C)NC(=O)[C@@H](CC(C)C)NC(=O)[C@H](CCN)NC2=O)[C@@H](C)O)NC(=O)[C@H](CO)NC(=O)[C@H](Cc2ccc(O)cc2)NC1=O)C(C)C [Ex. 272] (I: Ac-VCYSE[dDab][Dab]WSVCS-NH2 / II: [Dab]T[Dab][Dab][Dab][dL]L[Dab][Dab]T; disulfide I:2-I:11; amide I:5-II:N; lactam II:4-II:C)
- MIC [1]: 0.0625 µg/mL (≈ 0.0259 µM)
- MIC [2]: 0.0625 µg/mL (≈ 0.0259 µM)
- MIC [3]: 0.25 µg/mL (≈ 0.104 µM)
- MIC [4]: 0.125 µg/mL (≈ 0.0518 µM)
- MIC [5]: 0.0625 µg/mL (≈ 0.0259 µM)
- MIC [6]: 0.125 µg/mL (≈ 0.0518 µM)
- MIC [7]: 0.0625 µg/mL (≈ 0.0259 µM)
- MIC [8]: 0.125 µg/mL (≈ 0.0518 µM)
- Hemolysis at 200 μg/mL [9]: <1%

Structure (SMILES): CC(C)C[C@@H]1NC(=O)[C@@H](CC(C)C)NC(=O)[C@H](CCN)NC(=O)[C@@H](NC(=O)[C@H](CCN)NC(=O)[C@@H](NC(=O)[C@H](CCN)NC(=O)CC[C@@H]2NC(=O)[C@@H](NC(=O)[C@H](Cc3ccc(O)cc3)NC(=O)[C@H](CCC(=O)O)NC(=O)[C@@H](O)C(C)C)CSSC[C@@H](C(=O)N[C@H](C(=O)N[C@@H](CCCCN)C(=O)N[C@H](CO)[C@@H](C)O)C(C)(C)C)NC(=O)[C@H](Cc3c[nH]c4ccccc34)NC(=O)[C@H]([C@@H](C)O)NC(=O)[C@@H](CCN)NC2=O)[C@@H](C)O)CCNC(=O)[C@H]([C@@H](C)O)NC(=O)[C@H](CCN)NC(=O)[C@H](CCN)NC1=O [Ex. 189] (I: H-[Hiv]EYCE[dDab]TWC[Tle]K[Thr(ol)] / II: [Dab]T[Dab][Dab][Dab][dL]L[Dab][Dab]T; disulfide I:4-I:9; amide I:5-II:N; lactam II:4-II:C)
- MIC [1]: 0.5 µg/mL (≈ 0.202 µM)
- MIC [2]: 0.125 µg/mL (≈ 0.0506 µM)
- MIC [3]: 0.25 µg/mL (≈ 0.101 µM)
- MIC [4]: 1 µg/mL (≈ 0.405 µM)
- MIC [5]: 0.125 µg/mL (≈ 0.0506 µM)
- MIC [6]: 4 µg/mL (≈ 1.62 µM)
- MIC [7]: 0.125 µg/mL (≈ 0.0506 µM)
- MIC [8]: 0.25 µg/mL (≈ 0.101 µM)
- Hemolysis at 200 μg/mL [9]: <1%
